Experiment [1] concerns Bacillus megaterium. Kind of experiment: Antibiotic sensitivity screening test in petri dishes (MIC method). Type of experiment: cell-based. Particulars: 10^-1 to 10^-5 mg/mL. As to the method: The bacterial culture medium (HuanKai Microbial, Guangzhou, China) containing peptone 5 g, beef extract 3 g, NaCl 5 g, agar 15 g, and MnSO4 5 mg in 1 L ddH2O (pH=7.2) was prepared in conical flask (Drtech, Guangzhou, China) and was sterilized in the autoclave (HIRAYAMA, HEV-50, Japan) at 121° C. for 30 min. Bacillus megaterium (total 1*10^7 per culture) was cultured in the incubator (HettCube 200, Germany) at 37° C. for 24 h.
To test whether antibiotics can control the growth of Bacillus megaterium in vitro and in vivo, we first carried out an antibiotic sensitivity screening test in petri dishes which were made in example 1. The sensitivity of Bacillus megaterium to several major antimicrobial agents including ampicillin, vancomycin, neomycin, metronidazole and tetracycline were examined using the minimum inhibitory concentration (MIC) method. Ampicillin, vancomycin, neomycin, metronidazole, and tetracycline (purchased from Sigma, USA) at various concentrations (10^−1, 10^−2, 10^−3, 10^−4, 10^−5 mg/mL) were added into cooled medium.
The bacterial culture medium (HuanKai Microbial, Guangzhou, China) containing peptone 5 g, beef extract 3 g, NaCl 5 g, agar 15 g, and MnSO4 5 mg in 1 L ddH2O (pH=7.2) was prepared in conical flask (Drtech, Guangzhou, China) and was sterilized in the autoclave (HIRAYAMA, HEV-50, Japan) at 121° C. for 30 min. […]

Experiment [2] relates to Bacillus megaterium. In words: Bacillus megaterium subretinal inoculation model, drusenoid pathology in monkey retinal tissues. Type of experiment: in vivo, Macaca fascicularis. The settings on record: intravitreous, 0.5 mg, one injection on Day 2 post bacterial inoculation; macaque. As to the method: The macaques were sedated by intramuscular injection of a mixture of tiletamine hydrochloride (2.5 mg/kg) and xolazepam hydrochloride (2.5 mg/kg). After instilling topical anesthesia (0.5% proparacaine hydrochloride), the eyes were immediately visualized in vivo using a light microscope. The pupils were then dilated with 0.5% tropicamide and 0.5% phenylephrine to obtain the fundus photographs. […] Under microscopic monitoring, 20 μl of PBS (with or without bacteria) was injected into the subretinal space between photo receptors and RPE (retinal pigment epithelium), using a NanoFil Syringe Nanofil-100 for Microinjection (World Precision Instruments, USA). All procedures were done using sterile instruments. The macaque was euthanized 47 days post inoculation and the eyeball was enucleated for histological analyses. The eyeballs were fixed in 4% paraformaldehyde for 48 h and then embedded in paraffin. Sections were cut on a microtome at 6 μm and stained with H&E.
We examined whether subretinal inoculation of AH and VH cultures, as well as the cultured single species of B. megaterium led to AMD like pathology in macaque. About 20 CFU of bacteria (in 20 μl PBS) from AH, VH, and B. megaterium cultures were injected subretinally and PBS was used as a control (illustrated in FIG. 6). […]

“Also recorded” adds a separate entry of the source.

Consider `Cc1ncc([N+](=O)[O-])n1CCO` [metronidazole], for which the “fold less effective in controlling the growth of Bacillus megaterium (relative to neomycin)” value in experiment [1] was 10000 fold.
As to `CN[C@H](CC(C)C)C(=O)N[C@H]1C(=O)N[C@@H](CC(N)=O)C(=O)N[C@H]2C(=O)N[C@H]3C(=O)N[C@H](C(=O)N[C@H](C(=O)O)c4cc(O)cc(O)c4-c4cc3ccc4O)[C@H](O)c3ccc(c(Cl)c3)Oc3cc2cc(c3O[C@@H]2O[C@H](CO)[C@@H](O)[C@H](O)[C@H]2O[C@H]2C[C@](C)(N)[C@H](O)[C@H](C)O2)Oc2ccc(cc2Cl)[C@H]1O` [vancomycin], the “size of drusenoid lesion in retinal tissue” value in experiment [2] is “reduce drusenoid lesion; also recorded: reduction in the size of drusenoid lesion”.
On to neomycin, for which, in experiment [1] (1*10^7 bacteria per culture, 37° C., 24 h), the “sensitivity of Bacillus megaterium to antimicrobial agents (control of growth in vitro)” value is given as “most sensitive; also recorded: best in vitro activity”.

The values above are taken from patent publication US12016312B2, “Animal models, screening methods, and treatment methods for intraocular diseases or disorders” (ZHUHAI QIWEI BIO-TECHNOLOGY LTD., priority 2018, dated 2024).
